For this data set, the system named is CCRIS mutagenicity, Ames/micronucleus/aberration tests. Description: CCRIS mutagenicity studies.

Active and inactive are the calls of the source. How the calls were made is not given here.

As to `O=C(OC[C@@H]1O[C@H](OC(=O)c2cc(O)c(O)c(OC(=O)c3cc(O)c(O)c(O)c3)c2)[C@@H](OC(=O)c2cc(O)c(O)c(OC(=O)c3cc(O)c(O)c(O)c3)c2)[C@H](OC(=O)c2cc(O)c(O)c(OC(=O)c3cc(O)c(O)c(O)c3)c2)[C@H]1OC(=O)c1cc(O)c(O)c(OC(=O)c2cc(O)c(O)c(O)c2)c1)c1cc(O)c(O)c(OC(=O)c2cc(O)c(O)c(O)c2)c1`, the mutagenic call runs as follows: (Test System: AMES SALMONELLA TYPHIMURIUM, Strain/Indicator: TA98, Metabolic Activation: NONE, Method: PREINCUBATION) “inactive; negative”; (Test System: AMES SALMONELLA TYPHIMURIUM, Strain/Indicator: TA98, Metabolic Activation: RAT LIVER S-9, Method: PREINCUBATION) “inactive; negative”; (Test System: AMES SALMONELLA TYPHIMURIUM, Strain/Indicator: TA100, Metabolic Activation: NONE, Method: PREINCUBATION) “inactive; negative”; (Test System: AMES SALMONELLA TYPHIMURIUM, Strain/Indicator: TA100, Metabolic Activation: RAT LIVER S-9, Method: PREINCUBATION) “inactive; negative”; (Test System: AMES SALMONELLA TYPHIMURIUM, Strain/Indicator: TA102, Metabolic Activation: RAT LIVER S-9, PHENOBARBITAL AND 5,6-BENZOFLAVONE, Method: STANDARD PLATE) “inactive; negative”; (Test System: AMES SALMONELLA TYPHIMURIUM, Strain/Indicator: TA2638, Metabolic Activation: RAT LIVER S-9, PHENOBARBITAL AND 5,6-BENZOFLAVONE, Method: STANDARD PLATE) “inactive; negative”. Moreover, the mutagenic call by setting is: (Test System: E. COLI, Strain/Indicator: WP2 (PKM101), Metabolic Activation: RAT LIVER S-9, PHENOBARBITAL AND 5,6-BENZOFLAVONE, Method: STANDARD PLATE) “inactive; negative”; (Test System: E. COLI, Strain/Indicator: WP2 UVRA (PKM101), Metabolic Activation: RAT LIVER S-9, PHENOBARBITAL AND 5,6-BENZOFLAVONE, Method: STANDARD PLATE) “inactive; negative”.
`O=c1c2ccccc2c(=O)c2c1ccc1c3ccc4c(=O)c5c(ccc6c7ccc8c(=O)c9ccccc9c(=O)c8c7[nH]c65)c(=O)c4c3[nH]c12`: the mutagenic call was “active; positive” (Test System: Ames Salmonella typhimurium, Strain/Indicator: TA98, Metabolic Activation: None, Method: Preincubation); “inactive; negative” (Test System: Ames Salmonella typhimurium, Strain/Indicator: TA100, Metabolic Activation: None, Method: Preincubation); “inactive; negative” (Test System: Ames Salmonella typhimurium, Strain/Indicator: TA102, Metabolic Activation: None, Method: Preincubation); “inactive; negative” (Test System: Ames Salmonella typhimurium, Strain/Indicator: TA1535, Metabolic Activation: None, Method: Preincubation).

Values taken from PubChem BioAssay AID1259407 (Chemical Carcinogenesis Research Information System (CCRIS), 2018).
